# Where two headings read alike, the source gives them in different places.
# Columns and labels:
# Con A stimulated cells [1] = test: Percentage cell survival of Con A stimulated cells; details: for Percentage cell survival compared to 100% untreated cells under Con A stimulation: compound only (no Con A)
# TNF-α = TNF-α levels in PBMC under Con A stimulation (ELISA); type: cell-based, human; details: for Percentage TNF-α levels compared to 100% untreated cells under Con A stimulation: PBMC; for concentration of TNF-α in Con A stimulated cells: text summary of Table 3, concentration not stated
# Method: 1) Isolation, Culture and Treatment of Peripheral Blood Mononuclear Cells (PBMC) Blood was collected in 6 ml vacutainers (green cap). Blood was processed within 2 h of collection. Materials used: Non-coagulated blood; FCS; RPMI-1640 media supplemented with L-Gln and P/S; PBS; sterile tips and pipettes; Sterile 15 ml Falcon; Sterile V-bottom 96-well plates with lids; Neubauer chamber; Trypan Blue solution; 70% IPA solution; Accuspin-Histopaque tubes (Sigma, A7054) Procedure: • 1. Dilute samples 1:1 in sterile PBS; • 2. Add 30 ml of diluted blood into an Accuspin-Histopaque tube (Sigma, A7054); • 3. Centrifuge at 800 rcf 15min at room temperature (RT); • 4. After centrifugation, the red blood cells will remain at the bottom below the frit. The monocytes (PBMC) will be present on a layer above the frit, with the plasma on top; • 5. Collect the PBMC layer with a pipette into a fresh 15 ml Falcon tube and top up to 15 ml of PBS; • 6. Centrifuge at 250 rcf 10 min at RT; • 7. Discard the supernatant, flick the pellet and add another 10 ml of PBS; • 8. Centrifuge at 250 rcf 10 min at RT; • 9. Repeat steps 7 and 8; • 10. […] Count cells and make a 4×10^6 cell/ml suspension in complete medium. Add 100 μl of cell suspension per well in a V-bottom 96-well plate. Then add 50 μl of stimulant or vehicle in complete media, and 50 μl of drug or vehicle in complete media. Incubate the cells for 24 h at 37° C. 5% CO2; • 12. After incubation, take 60 μl of cell supernatant to measure IFNγ and TNFα by ELISA (OptEIA human IFNγ, cat No. 555142 and human TNF, Cat No. 555212) following manufacturer's instructions (BD Biosciences); The two mitogens that the inventors used to stimulate lymphocytes, and therefore assess immune function, were lipopolysaccharide (LPS) and Concanavalin A (Con A). LPS acts on B cells but not T cells, whereas Con A acts on T cells but not B cells. The effects of two embodiments of the compound represented by formula I, i.e. dobutamine (referred to in the tables as BC1021) and ritodrine (BC1023), on the levels of IFN-γ and TNF-α were investigated in LPS and Con A stimulated assays. Peripheral Blood Mononuclear Cells (PMBC) were independently administered with each mitogen, LPS or Con A, and then treated with either dobutamine or ritodrine. Control experiments were conducted in which no LPS or Con A was added, such that any effect on the levels of IFN-γ and TNF-α could be directly attributed to the presence of the test compound, dobutamine or ritodrine.
# Con A stimulated cells [2] = details: for Percentage cell survival compared to 100% untreated cells under Con A stimulation: human
# [3] = compound only (no Con A), 10 μM
# [4] = compound only (no Con A), 100 μM
SMILES,Percentage cell survival compared to 100% untreated cells under Con A stimulation (Con A stimulated cells [1]; 1 μM),Percentage cell survival compared to 100% untreated cells under Con A stimulation (Con A stimulated cells [1]; 10 μM),Percentage cell survival compared to 100% untreated cells under Con A stimulation (Con A stimulated cells [1]; 100 μM),"percentage cell survival compared to the untreated controls (Con A stimulated cells [1]; text summary of Table 5, all doses)","Percentage TNF-α levels compared to 100% untreated cells under Con A stimulation (TNF-α; + Con A, compound 1 μM, 24 h)","Percentage TNF-α levels compared to 100% untreated cells under Con A stimulation (TNF-α; + Con A, compound 10 μM, 24 h)","Percentage TNF-α levels compared to 100% untreated cells under Con A stimulation (TNF-α; + Con A, compound 100 μM, 24 h)","Percentage TNF-α levels compared to 100% untreated cells under Con A stimulation (TNF-α; compound only (no Con A), 1 μM)",Percentage TNF-α levels compared to 100% untreated cells under Con A stimulation (TNF-α; [3]),Percentage TNF-α levels compared to 100% untreated cells under Con A stimulation (TNF-α; [4]),concentration of TNF-α in Con A stimulated cells (TNF-α),percentage cell survival compared to the untreated controls (Con A stimulated cells [2]),Percentage cell survival compared to 100% untreated cells under Con A stimulation (Con A stimulated cells [2]; 1 μM),Percentage cell survival compared to 100% untreated cells under Con A stimulation (Con A stimulated cells [2]; 10 μM),Percentage cell survival compared to 100% untreated cells under Con A stimulation (Con A stimulated cells [2]; 100 μM)
"CC(CCc1ccc(O)cc1)NCCc1ccc(O)c(O)c1 (stereo not shown) [BC1021, dobutamine]",76.89%,69.80%,44.95%,higher,103.05%,102.36%,−33.95%,−35.44%,−33.21%,−42.84%,decreased,,,,
"CC(NCCc1ccc(O)cc1)C(O)c1ccc(O)cc1 (stereo not shown) [BC1023, ritodrine]",,,,,103.92%,106.20%,104.93%,−5.94%,−24.69%,−14.80%,decreased,higher,78.69%,75.25%,72.56%
